The results in this text go back to patent publication US12642827B2, “Lactic acid bacteria strain—antibacterial peptides produced by said strain and related pharmaceutical compositions” (UNIVERSITE DE LILLE, priority 2019, dated 2026).

What all share (assay type): cell-based, Escherichia coli
Test [1] concerns E. coli ATCC8739. Description: MIC determination. As to conditions: E. coli ATCC8739, reference strain. The procedure:
(§1) The cell-free supernatant (CFS) was obtained by centrifugation (8 000 g, 10 min, 4° C.) of a culture of L. paracasei I-CNCM 5369 grown without shaking on MRS medium for 24 to 30 h at 37° C. Then 40 mL of the obtained CFS was loaded onto a reversed phase C18 (Agilent, USA) cartridge. Afterwards, a washing step was performed with 10% (v/v) acetonitrile followed-up by an elution with 40 mL of 20% (v/v) acetonitrile solution in order to eluate the active fraction. The active fraction was dried using SpeedVac and resuspended in 1:10 of the initial volume of ultrapure water. The resulting active solution was designed as fraction E20 (or E20% particularly in the figures) throughout the text. Fraction E20 was stored at 4° C. and therefore used for the different tests to characterize the anti-E. coli activity. Noteworthy, E20 fraction was tested against a panel of E. coli strains with different genotypes to examine their sensibility to the putative bacteriocin(s) contained in this fraction. This assessment was performed by the determination of the minimal inhibitory concentration (MIC) values, which were ranging from 250 to 2 000 μg/mL (Table 5).
(§2) E20 fraction prepared from L. paracasei I-CNCM 5369, was half-diluted and mixed with colistin at a concentration ranging from 1 to 128 μg/mL in BHI medium. The resulting formulations were tested against E. coli 184, carrying the mcr-1 gene, as well as on other E. coli strains (Table 6). After an overnight period of incubation at 37° C., the growth of E. coli strains was checked by spectrophotometry at OD600 nm, and new MIC values of colistin/E20 were determined. […] Indeed, the decreased from 8 to 2 μg/mL in the presence of E20 fraction. This synergetic interaction was as well observed for other E. coli strains, where the MIC values decreased twice for E. coli E4A4WT, 4 times folds for E. coli 289 and 8 times for E. coli E4A4 variant. […] The weight composition of the mixture of E20 fraction+colistin is indicated in brackets next to the MIC value. […]

A further test deals with E. coli E4A4 variant. Description: MIC determination. As to conditions: colistin unsensibilised. Here is the method: as §1, §2
Another test relates to E. coli E4A4 WT. Description: MIC determination. The conditions noted are these: environmental strain. Here is the method:
as §1, §2

For test [2], the system named is E. coli ATCC8739. Description: Killing curves. The conditions noted are these: BHI, inhibitory concentration (colistin 16 μg/mL), pH 4.5-5, 37° C. Here is the method: The killing curves were determined on three E. coli strains, because of for their resistance or sensitivity to colistin. These strains were E. coli 184 (mcr-1), E. coli E4A4 variant with resistance to colistin, and E. coli ATCC8739 colistin-sensitive reference strain (Table 5). These strains were inoculated in BHI (Brain Heart Infusion) medium containing the semi-purified fraction of E20 fraction at inhibitory concentration. An untreated E. coli ATCC8739 control treated with inhibitory concentration of colistin (16 μg/mL) was also tested. The pH of the medium was adjusted to 4.5-5 in the various samples, which were incubated at 37° C. for 8 h. At regular intervals of time, samples were taken to determine the number of colony forming units per mL (CFU/mL) under each tested condition.
As depicted in the FIG. 2, the number of CFU/mL of the strains treated with E20 fraction decreased rapidly with no visible growth (0 CFU/mL), after 1 h of incubation. […] A similar data was obtained after 1 h of incubation for E. coli ATCC8739 treated with colistin (16 μg/mL).

The next test has as its system E. coli TOP10. The conditions noted are these: E. coli TOP10, LPS-. Here is the method: as §1
(§3) E20 fraction prepared from L. paracasei I-CNCM 5369, was half-diluted and mixed with colistin at a concentration ranging from 1 to 128 μg/mL in BHI medium. The resulting formulations were tested against E. coli 184, carrying the mcr-1 gene, as well as on other E. coli strains (Table 6). After an overnight period of incubation at 37° C., the growth of E. coli strains was checked by spectrophotometry at OD600 nm, and new MIC values of colistin/E20 were determined. […] Indeed, the decreased from 8 to 2 μg/mL in the presence of E20 fraction. This synergetic interaction was as well observed for other E. coli strains, where the MIC values decreased twice for E. coli E4A4WT, 4 times folds for E. coli 289 and 8 times for E. coli E4A4 variant. […] The weight composition of the mixture of E20 fraction+colistin is indicated in brackets next to the MIC value. The first value refers to the amount of colistin in μg/mL, whereas the second in brackets refers to the amount of E20 fraction in μg/mL).
(§4) The alginate nanoparticles (Alg NPs) were obtained by a top down process (ball milling) and used at a concentration of 500 μg/mL. The E20 fraction was mixed at a concentration of 60 μg/mL with this suspension, which corresponds to 12% of the used Alg NPs concentration. […] To gain insights on the effects of alginate nanoparticles, colistin was also loaded on Alg NPs and the resulting formulation (colistin-Alg NPs) was tested against same target E. coli strains.

Another test concerns E. coli 184. As to conditions: E. coli 184, mcr-1+. The procedure: as §1, §3, §4
A further test concerns E. coli 289. The conditions noted are these: E. coli 289, mcr-1−. The procedure: as §1, §3, §4
Another test has as its system E. coli SBS36. As to conditions: E. coli SBS36, truncated LPS. The procedure:
as §1, §3, §4

The subject of a further test is panel of E. coli strains. Description: Anti-E. coli activity / MIC over a panel of strains.
The next test relates to E. coli CIP7628. Description: MIC determination. The conditions noted are these: E. coli CIP7628, reference strain. The procedure:
as §1
The alginate nanoparticles (Alg NPs) were obtained by a top down process (ball milling) and used at a concentration of 500 μg/mL. […]

Test [3] concerns E. coli colistin-resistant strain. Description: Anti-E. coli activity (AU/mL) of recombinant peptides. As to conditions: purified on Ni-NTA, adjusted to pH 5. An excerpt: Each of the orf coding for putative bacteriocin was cloned in expression vector suitable for E. coli competent cells. Each orf was cloned under the control of the inducible T7 promoter and with His-Tag (6 His) tail positioned on the N-terminal or C-terminal part. The cloning of each orf at the N- or C-terminal position of Histag tail, has led to 10 recombinant plasm ids. Each of these recombinant plasm ids was introduced in E. coli BL21 (DE3)(plysS) competent cells. The successfully transformed E. coli was regenerated in SOC medium for 1 h at 37° C. with shaking at 160 rpm, and then selected on Luria-Bertani (LB) agar medium supplemented with ampicillin (100 μg mL^−1) and chloramphenicol (30 μg mL^−1) (Sigma Aldrich). After overnight incubation at 37° C., the obtained colonies on LB agar medium with antibiotics were checked for the presence of the recombined plasmid containing the appropriate cloned orfs by PCR using specific primers.
Overnight culture of E. coli strain BL21(DE3)(pLysS), harboring each recombinant plasmid, was diluted to 1% (vol/vol) in LB medium containing ampicillin (100 μg mL^−1) and chloramphenicol (30 μg mL^−1) and then grown aerobically at 37° C. […]
Then the obtained solution was adjusted to pH 5 using acetic acid and then its activity (AU/mL) against E. coli colistin-resistant strain was evaluated, as described previously.

Ends that are not written are not given here. His‑tag = His-Tag tail of six histidine residues (6 His), attached at the N- or C-terminal end

As for colistin, the MIC with E. coli ATCC8739 [1] worked out at 2 µg/mL; in the test on E. coli E4A4 variant it was 16 µg/mL; with E. coli E4A4 WT, 2 µg/mL; in the test on E. coli TOP10, 1 µg/mL; in the test with E. coli 184, 8 µg/mL; in the test with E. coli 289 it was 8 µg/mL. In addition, the MIC turned out to be 2 µg/mL in the test on E. coli SBS36 and 1 µg/mL with E. coli CIP7628. In addition, the “incubation time to no visible growth (0 CFU/mL)” value with E. coli ATCC8739 [2] was found to be 1 h. Further, the “colistin MIC of E. coli 184 compared to reference strain E. coli ATCC8739” value in the test on panel of E. coli strains is reported as “four folds higher”.

As for “Orf10 HisTag C-ter: recombinant Orf010 peptide with C-terminal His-Tag expressed in E. coli BL21 (DE3) (pLysS) (MYTMTNLKDKELSQITGGFAFVIPVAAILGFLASDAWSHADEIAGGATSGWSLADKSHSL-{His‑tag}; not fully specified; listed as Lactobacillus paracasei)”, the “anti E. coli activity” value in [3] was determined as 200 AU/mL.
